Laboratory results: publication PMC7823827, “β-Galactosidases from a Sequence-Based Metagenome: Cloning, Expression, Purification and Characterization” (Microorganisms, 2020)

System: T1, βgal5
T1 construct: gene AUR.contig-100_1620_7; GH42; N-terminal 6-His with TEV site (pET-TEV), E. coli BL21(DE3), Ni-NTA
Test: nitrophenol release, absorbance […] nm
Assay type: biochemical
Conditions: buffer Z (phosphate, KCl, MgSO4), 30 °C; 2.5-20 mM substrate; read-out: Km (mM) / ONPG

Compound `O=[N+]([O-])c1ccccc1O[C@@H]1O[C@H](CO)[C@H](O)[C@H](O)[C@H]1O` [2-nitrophenyl-β-D-galactopyranoside] has a Km of 14.5 mM.
